Measurements from ChEMBL document CHEMBL4842324, “PdCl2-catalyzed synthesis of a new class of isocoumarin derivatives containing aminosulfonyl / aminocarboxamide moiety: First identification of a isocoumarin based PDE4 inhibitor” (Eur J Med Chem, 2021).
Blank lines part the entries; values can stand above or below the molecule they belong to. The source made the active and inactive calls. No cut-off for these calls is given here.

What was measured:
Rattus norvegicus [1] = experiment: Antiinflammatory activity against complete Freund's adjuvant induced rat model of arthritis assessed as reduction in paw volume at 1 mg/kg, po administered once daily measured on day 21 by macroscopic analysis; assay type: functional, organism-based; details: time 21.0 day
Rattus norvegicus [2] = experiment: Antiinflammatory activity against complete Freund's adjuvant induced rat model of arthritis assessed as decrease in TNF-alpha expression at 10 to 30 mg/kg, ip by immunohistochemical staining based assay; assay type: functional, organism-based; details: dose 10-30 mg/kg
Rattus norvegicus [3] = experiment: Antiinflammatory activity against complete Freund's adjuvant induced rat model of arthritis assessed as reduction in joint structure deformity at 1 mg/kg, ip measured on day 21 by radiographic analysis; assay type: functional, organism-based; details: time 21.0 day
[4] = biological target: T1, 3',5'-cyclic-AMP phosphodiesterase 4B (Homo sapiens, UniProt Q07343); experiment: Inhibition of PDE4B (unknown origin) using [3H]cAMP as substrate at 10 uM incubated for 30 mins by scintillation proximity assay relative to control
[5] = biological target: T1, 3',5'-cyclic-AMP phosphodiesterase 4B; experiment: Inhibition of PDE4B (unknown origin) using [3H]cAMP as substrate incubated for 30 mins by scintillation proximity assay
Homo sapiens = organism: Homo sapiens; experiment: Selectivity ratio of IC50 for PDE4D (unknown origin) to IC50 for PDE4B (unknown origin)
[6] = biological target: 3',5'-cyclic-AMP phosphodiesterase 4D (Homo sapiens, UniProt Q08499); experiment: Inhibition of PDE4D (unknown origin)
[7] = biological target: Tumor necrosis factor (Homo sapiens) (UniProt P01375); experiment: Inhibition of TNF-alpha (unknown origin) at 3 uM relative to control
Rattus norvegicus [8] = experiment: Antiinflammatory activity against complete Freund's adjuvant induced rat model of arthritis assessed as reduction in paw volume at 30 mg/kg, ip measured on day 21 by macroscopic analysis; assay type: functional, organism-based; details: time 21.0 day
[9] = biological target: cGMP-dependent 3',5'-cyclic phosphodiesterase (Homo sapiens) (UniProt O00408); experiment: Inhibition of PDE2A1 (unknown origin) at 10 uM relative to control
[10] = biological target: Dual specificity calcium/calmodulin-dependent 3',5'-cyclic nucleotide phosphodiesterase 1B (Homo sapiens) (UniProt Q01064); experiment: Inhibition of PDE1B (unknown origin) at 10 uM relative to control
[11] = biological target: Tumor necrosis factor (Homo sapiens) (UniProt P01375); experiment: Inhibition of TNF-alpha (unknown origin) at 0.3 uM relative to control
[12] = biological target: High affinity cGMP-specific 3',5'-cyclic phosphodiesterase 9A (Homo sapiens) (UniProt O76083); experiment: Inhibition of PDE9A2 (unknown origin) at 10 uM relative to control
[13] = biological target: High affinity 3',5'-cyclic-AMP phosphodiesterase 7A (Homo sapiens) (UniProt Q13946); experiment: Inhibition of PDE7A1 (unknown origin) at 10 uM relative to control
Rattus norvegicus [14] = experiment: Antiinflammatory activity against complete Freund's adjuvant induced rat model of arthritis assessed as decrease in pathological changes at 30 mg/kg, ip measured on day 21 by H and E staining based histopathological analysis; assay type: functional, organism-based; details: time 21.0 day
[15] = biological target: 3',5'-cyclic-AMP phosphodiesterase 7B (Homo sapiens) (UniProt Q9NP56); experiment: Inhibition of PDE7B (unknown origin) at 10 uM relative to control
Rattus norvegicus [16] = experiment: Antiinflammatory activity against complete Freund's adjuvant induced rat model of arthritis assessed as reduction in joint degeneration changes at 30 mg/kg, ip measured on day 21 by H and E staining based histopathological analysis; assay type: functional, organism-based; details: time 21.0 day
[17] = Toxicity in zebrafish embryos assessed as teratogenicity at 1 to 100 uM; parameters: species or system Danio rerio; details: in vivo, dose 1-100 µM
[18] = Cardiac toxicity in zebrafish embryos assessed as effect on heart rate at 1 to 100 uM; parameters: species or system Danio rerio; details: in vivo, dose 1-100 µM
[19] = Hepatotoxicity in zebrafish embryos assessed as liver degeneration at 1 to 100 uM; assay type: toxicity, Danio rerio; details: in vivo, dose 1-100 µM
Rattus norvegicus [20] = experiment: Antiinflammatory activity against complete Freund's adjuvant induced rat model of arthritis assessed as improvement in intestinal absorption at 30 mg/kg, ip measured on day 21; assay type: functional, organism-based; details: time 21.0 day
[21] = biological target: cGMP-inhibited 3',5'-cyclic phosphodiesterase 3A (Homo sapiens) (UniProt Q14432); experiment: Inhibition of PDE3A (unknown origin) at 10 uM relative to control
Rattus norvegicus [22] = experiment: Antiinflammatory activity against complete Freund's adjuvant induced ip dosed rat model of arthritis assessed as reduction in paw swelling measured on day 21 by macroscopic analysis; assay type: functional, organism-based; details: time 21.0 day
[23] = biological target: Cone cGMP-specific 3',5'-cyclic phosphodiesterase subunit alpha' (Homo sapiens) (UniProt P51160); experiment: Inhibition of PDE6C (unknown origin) at 10 uM relative to control
[24] = biological target: cAMP and cAMP-inhibited cGMP 3',5'-cyclic phosphodiesterase 10A (Homo sapiens) (UniProt Q9Y233); experiment: Inhibition of PDE10A2 (unknown origin) at 10 uM relative to control
RAW264.7 = experiment: Cytotoxicity against mouse RAW264.7 cells assessed as reduction in cell viability measured after 48 hrs by MTT assay; assay type: cell-based; details: RAW264.7, 48 h
[25] = biological target: cGMP-specific 3',5'-cyclic phosphodiesterase (Homo sapiens) (UniProt O76074); experiment: Inhibition of PDE5A1 (unknown origin) at 10 uM relative to control
[26] = biological target: cGMP-inhibited 3',5'-cyclic phosphodiesterase 3B (Homo sapiens) (UniProt Q13370); experiment: Inhibition of PDE3B (unknown origin) at 10 uM relative to control
[27] = Hepatotoxicity in zebrafish embryos assessed as effect on liver size at 1 to 100 uM; assay type: toxicity, Danio rerio; details: in vivo, dose 1-100 µM
Rattus norvegicus [28] = experiment: Antiinflammatory activity against complete Freund's adjuvant induced rat model of arthritis assessed as effect on IL-6 expression at 10 to 30 mg/kg, ip by immunohistochemical staining based assay; assay type: functional, organism-based; details: dose 10-30 mg/kg
[29] = biological target: cAMP and cAMP-inhibited cGMP 3',5'-cyclic phosphodiesterase 10A (Homo sapiens) (UniProt Q9Y233); experiment: Inhibition of PDE10A1 (unknown origin) at 10 uM relative to control
[30] = biological target: High affinity cAMP-specific and IBMX-insensitive 3',5'-cyclic phosphodiesterase 8A (Homo sapiens) (UniProt O60658); experiment: Inhibition of PDE8A1 (unknown origin) at 10 uM relative to control
[31] = biological target: Tumor necrosis factor (Homo sapiens) (UniProt P01375); experiment: Inhibition of TNF-alpha (unknown origin) at 10 uM relative to control
[32] = biological target: Dual 3',5'-cyclic-AMP and -GMP phosphodiesterase 11A (Homo sapiens) (UniProt Q9HCR9); experiment: Inhibition of PDE11A4 (unknown origin) at 10 uM relative to control
[33] = biological target: Dual specificity calcium/calmodulin-dependent 3',5'-cyclic nucleotide phosphodiesterase 1A (Homo sapiens) (UniProt P54750); experiment: Inhibition of PDE1A1 (unknown origin) at 10 uM relative to control
[34] = biological target: Dual specificity calcium/calmodulin-dependent 3',5'-cyclic nucleotide phosphodiesterase 1C (Homo sapiens) (UniProt Q14123); experiment: Inhibition of PDE1C (unknown origin) at 10 uM relative to control
[35] = Toxicity in zebrafish embryos assessed as induction of apoptosis at 1 to 100 uM; parameters: species or system Danio rerio; details: dose 1-100 µM
[36] = biological target: Tumor necrosis factor (Homo sapiens) (UniProt P01375); experiment: Inhibition of TNF-alpha (unknown origin) at 1 uM relative to control
[37] = biological target: Tumor necrosis factor (Homo sapiens) (UniProt P01375); experiment: Inhibition of TNF-alpha (unknown origin) at 0.1 uM relative to control

T1 sequence (Q07343 whole entry): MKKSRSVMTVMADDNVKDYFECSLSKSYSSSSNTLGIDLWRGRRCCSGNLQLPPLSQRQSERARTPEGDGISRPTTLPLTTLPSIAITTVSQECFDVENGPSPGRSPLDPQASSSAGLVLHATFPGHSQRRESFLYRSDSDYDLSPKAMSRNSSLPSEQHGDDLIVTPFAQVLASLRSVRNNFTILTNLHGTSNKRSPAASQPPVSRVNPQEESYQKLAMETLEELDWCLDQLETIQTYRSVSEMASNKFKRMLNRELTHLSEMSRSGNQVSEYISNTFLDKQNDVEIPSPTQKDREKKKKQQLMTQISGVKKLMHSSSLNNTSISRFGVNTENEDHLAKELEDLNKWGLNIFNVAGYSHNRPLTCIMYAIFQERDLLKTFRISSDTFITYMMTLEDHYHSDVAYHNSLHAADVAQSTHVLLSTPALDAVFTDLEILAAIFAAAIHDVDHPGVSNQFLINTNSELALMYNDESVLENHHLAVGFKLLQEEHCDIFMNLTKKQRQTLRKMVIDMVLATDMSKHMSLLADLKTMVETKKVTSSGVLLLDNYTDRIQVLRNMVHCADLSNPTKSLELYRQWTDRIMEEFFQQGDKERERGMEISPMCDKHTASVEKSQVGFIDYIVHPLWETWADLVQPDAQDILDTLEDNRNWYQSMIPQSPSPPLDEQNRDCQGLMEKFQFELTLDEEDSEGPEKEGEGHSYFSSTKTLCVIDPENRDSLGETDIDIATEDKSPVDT
Chain of Tumor necrosis factor (Homo sapiens) (P01375 whole entry): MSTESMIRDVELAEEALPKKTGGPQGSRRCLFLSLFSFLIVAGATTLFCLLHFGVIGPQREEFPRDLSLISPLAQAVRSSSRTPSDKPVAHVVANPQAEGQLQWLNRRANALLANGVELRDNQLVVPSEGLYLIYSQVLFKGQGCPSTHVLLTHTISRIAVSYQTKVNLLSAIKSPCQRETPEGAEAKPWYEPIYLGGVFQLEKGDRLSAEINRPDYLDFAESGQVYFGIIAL
Chain of 3',5'-cyclic-AMP phosphodiesterase 4D (Q08499 whole entry): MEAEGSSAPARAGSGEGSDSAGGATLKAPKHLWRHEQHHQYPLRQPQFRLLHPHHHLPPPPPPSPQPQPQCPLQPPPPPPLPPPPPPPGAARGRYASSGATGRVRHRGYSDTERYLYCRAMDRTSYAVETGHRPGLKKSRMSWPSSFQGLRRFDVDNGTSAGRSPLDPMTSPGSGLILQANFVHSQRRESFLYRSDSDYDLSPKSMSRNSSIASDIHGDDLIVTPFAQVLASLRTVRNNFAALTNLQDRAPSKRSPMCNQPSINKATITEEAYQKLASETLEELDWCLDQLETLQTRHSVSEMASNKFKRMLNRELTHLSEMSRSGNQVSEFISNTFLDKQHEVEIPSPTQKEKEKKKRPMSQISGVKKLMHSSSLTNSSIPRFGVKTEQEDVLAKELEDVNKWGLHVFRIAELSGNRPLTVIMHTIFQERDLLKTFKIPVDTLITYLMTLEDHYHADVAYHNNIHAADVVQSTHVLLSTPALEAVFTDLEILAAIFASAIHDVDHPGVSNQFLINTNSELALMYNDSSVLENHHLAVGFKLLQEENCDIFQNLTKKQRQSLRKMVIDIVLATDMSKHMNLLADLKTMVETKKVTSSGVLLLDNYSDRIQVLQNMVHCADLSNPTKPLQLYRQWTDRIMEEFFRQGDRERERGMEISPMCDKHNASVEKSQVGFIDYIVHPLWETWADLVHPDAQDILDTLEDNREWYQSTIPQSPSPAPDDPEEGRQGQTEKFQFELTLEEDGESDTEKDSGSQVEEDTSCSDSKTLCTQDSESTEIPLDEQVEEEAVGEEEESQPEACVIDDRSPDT
Chain of cAMP and cAMP-inhibited cGMP 3',5'-cyclic phosphodiesterase 10A (Homo sapiens) (Q9Y233 whole entry): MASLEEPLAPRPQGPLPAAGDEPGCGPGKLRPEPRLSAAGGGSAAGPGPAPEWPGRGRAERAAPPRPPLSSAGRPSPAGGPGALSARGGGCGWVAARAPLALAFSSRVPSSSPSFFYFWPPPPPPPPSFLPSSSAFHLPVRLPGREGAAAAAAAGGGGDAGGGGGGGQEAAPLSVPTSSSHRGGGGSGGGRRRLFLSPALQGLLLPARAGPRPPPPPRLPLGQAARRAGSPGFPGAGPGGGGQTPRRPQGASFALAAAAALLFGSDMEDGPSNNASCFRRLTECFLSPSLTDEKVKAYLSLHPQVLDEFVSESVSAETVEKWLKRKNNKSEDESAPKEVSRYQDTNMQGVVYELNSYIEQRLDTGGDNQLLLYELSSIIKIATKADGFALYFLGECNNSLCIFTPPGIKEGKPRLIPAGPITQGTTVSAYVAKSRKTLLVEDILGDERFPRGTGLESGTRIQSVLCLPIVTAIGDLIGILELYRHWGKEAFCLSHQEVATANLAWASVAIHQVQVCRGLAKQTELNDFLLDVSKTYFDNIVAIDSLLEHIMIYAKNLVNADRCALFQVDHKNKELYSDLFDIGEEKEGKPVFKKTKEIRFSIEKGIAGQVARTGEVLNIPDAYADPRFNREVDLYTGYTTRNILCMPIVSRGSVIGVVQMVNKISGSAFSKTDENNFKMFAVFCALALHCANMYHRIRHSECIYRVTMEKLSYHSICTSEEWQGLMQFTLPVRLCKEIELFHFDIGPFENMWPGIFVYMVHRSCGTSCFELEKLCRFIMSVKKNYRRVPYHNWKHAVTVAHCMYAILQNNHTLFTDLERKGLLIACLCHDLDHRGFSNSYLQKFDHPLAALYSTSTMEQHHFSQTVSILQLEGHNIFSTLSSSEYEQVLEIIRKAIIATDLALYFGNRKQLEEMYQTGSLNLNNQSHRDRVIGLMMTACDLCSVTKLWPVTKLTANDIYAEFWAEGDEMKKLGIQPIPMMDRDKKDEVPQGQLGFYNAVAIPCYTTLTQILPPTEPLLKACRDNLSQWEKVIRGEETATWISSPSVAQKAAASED
Chain of Dual specificity calcium/calmodulin-dependent 3',5'-cyclic nucleotide phosphodiesterase 1B (Homo sapiens) (Q01064 whole entry): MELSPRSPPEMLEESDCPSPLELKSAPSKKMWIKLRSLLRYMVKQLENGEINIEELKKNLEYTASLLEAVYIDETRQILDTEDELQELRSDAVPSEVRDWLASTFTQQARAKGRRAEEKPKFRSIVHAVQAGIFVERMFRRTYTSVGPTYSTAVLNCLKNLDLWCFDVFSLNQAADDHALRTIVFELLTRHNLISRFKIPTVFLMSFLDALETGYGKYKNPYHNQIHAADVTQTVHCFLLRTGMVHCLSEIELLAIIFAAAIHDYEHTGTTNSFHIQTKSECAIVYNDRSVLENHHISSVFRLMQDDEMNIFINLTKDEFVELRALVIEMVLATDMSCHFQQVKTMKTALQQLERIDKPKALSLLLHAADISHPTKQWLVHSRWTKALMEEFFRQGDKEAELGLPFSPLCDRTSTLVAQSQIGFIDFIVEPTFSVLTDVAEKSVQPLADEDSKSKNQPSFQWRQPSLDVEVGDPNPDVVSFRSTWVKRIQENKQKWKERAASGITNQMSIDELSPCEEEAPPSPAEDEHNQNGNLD
Chain of High affinity cAMP-specific and IBMX-insensitive 3',5'-cyclic phosphodiesterase 8A (Homo sapiens) (O60658 whole entry): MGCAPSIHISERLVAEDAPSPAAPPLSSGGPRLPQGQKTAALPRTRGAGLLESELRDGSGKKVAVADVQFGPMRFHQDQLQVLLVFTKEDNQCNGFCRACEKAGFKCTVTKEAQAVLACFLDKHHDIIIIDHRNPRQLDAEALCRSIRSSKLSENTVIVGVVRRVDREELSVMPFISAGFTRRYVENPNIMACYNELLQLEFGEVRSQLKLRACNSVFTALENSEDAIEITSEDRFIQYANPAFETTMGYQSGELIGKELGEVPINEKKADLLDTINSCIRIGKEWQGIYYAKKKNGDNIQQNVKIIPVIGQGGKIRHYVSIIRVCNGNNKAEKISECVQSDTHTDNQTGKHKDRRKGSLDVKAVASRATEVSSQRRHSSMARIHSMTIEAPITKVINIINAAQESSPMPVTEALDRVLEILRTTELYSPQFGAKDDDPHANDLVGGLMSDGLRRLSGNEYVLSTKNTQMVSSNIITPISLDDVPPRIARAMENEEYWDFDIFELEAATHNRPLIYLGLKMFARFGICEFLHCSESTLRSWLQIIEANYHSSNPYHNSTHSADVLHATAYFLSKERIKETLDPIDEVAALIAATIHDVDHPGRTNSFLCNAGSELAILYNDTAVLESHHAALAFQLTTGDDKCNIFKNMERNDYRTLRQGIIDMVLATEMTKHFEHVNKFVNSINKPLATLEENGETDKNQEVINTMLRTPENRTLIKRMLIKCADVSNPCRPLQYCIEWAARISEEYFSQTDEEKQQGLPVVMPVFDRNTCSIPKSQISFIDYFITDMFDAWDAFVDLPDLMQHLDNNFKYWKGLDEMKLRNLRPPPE
Chain of 3',5'-cyclic-AMP phosphodiesterase 7B (Homo sapiens) (Q9NP56 whole entry): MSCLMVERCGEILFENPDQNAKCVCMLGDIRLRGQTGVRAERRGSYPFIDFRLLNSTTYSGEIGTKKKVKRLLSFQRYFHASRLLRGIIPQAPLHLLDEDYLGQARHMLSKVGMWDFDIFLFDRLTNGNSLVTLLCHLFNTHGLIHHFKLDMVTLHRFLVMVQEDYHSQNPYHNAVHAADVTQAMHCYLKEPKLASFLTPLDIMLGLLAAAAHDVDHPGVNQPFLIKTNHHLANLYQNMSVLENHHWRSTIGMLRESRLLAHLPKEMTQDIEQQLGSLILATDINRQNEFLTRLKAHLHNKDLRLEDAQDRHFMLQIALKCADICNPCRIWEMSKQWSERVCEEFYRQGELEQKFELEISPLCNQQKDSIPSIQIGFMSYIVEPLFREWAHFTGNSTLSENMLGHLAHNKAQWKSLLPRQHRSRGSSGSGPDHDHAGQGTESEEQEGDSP

Compound: CN(Cc1cnc2nc(N)nc(N)c2n1)c1ccc(C(=O)N[C@@H](CCC(=O)O)C(=O)O)cc1
Activity (Rattus norvegicus [1]): Active | Activity (Rattus norvegicus [2]): Active | Activity (Rattus norvegicus [3]): inactive

inhibition [4]: 55.3%
Compound: C=CCc1c(-c2cccc(NS(=O)(=O)c3ccc(C(F)(F)F)cc3)c2)oc(=O)c2ccccc12

inhibition [4]: 74.6%
Compound: C=CCc1c(-c2cccc(NC(=O)c3ccccc3)c2)oc(=O)c2cc(F)ccc12

inhibition [4]: 46.5%
Compound: C=CCc1c(-c2ccc(NC(=O)c3ccccc3)cc2)oc(=O)c2ccccc12

inhibition [4]: 94.4% | IC50 [5]: 1.91 µM
Compound: C=CCc1c(-c2ccc(NS(=O)(=O)c3ccccc3)cc2)oc(=O)c2cc(F)ccc12

inhibition [4]: 82.2% | Ratio IC50 (Homo sapiens): 2 | IC50 [6]: 0.9 µM | IC50 [5]: 0.43 µM
Compound: C=CCc1c(-c2cccc(NS(=O)(=O)c3ccccc3)c2)oc(=O)c2cc(F)ccc12

inhibition [4]: 54.9%
Compound: C=CCc1c(-c2ccc(NS(C)(=O)=O)cc2)oc(=O)c2ccccc12

inhibition [4]: 85.9% | IC50 [5]: 1.76 µM
Compound: C=CCc1c(-c2cccc(NS(=O)(=O)c3cccs3)c2)oc(=O)c2ccccc12

inhibition [4]: 77.8% | IC50 [5]: 2.07 µM
Compound: C=CCc1c(-c2cccc(NS(=O)(=O)c3ccc(C)cc3)c2)oc(=O)c2ccccc12

inhibition [4]: 72.6%
Compound: C=CCc1c(-c2cccc(NC(=O)c3ccccc3)c2)oc(=O)c2ccccc12

inhibition [9]: 9% | inhibition [10]: 18% | inhibition [12]: 8% | inhibition [13]: 6% | inhibition [15]: 3% | inhibition [21]: 11% | inhibition [4]: 96% | inhibition [23]: 10% | Ratio IC50 (Homo sapiens): 2.5 | inhibition [24]: 19% | inhibition [25]: 8% | inhibition [26]: 7% | inhibition [29]: 12% | inhibition [30]: 2% | inhibition [32]: 11% | inhibition [33]: 21% | IC50 [6]: 1.34 µM | inhibition [34]: 24% | IC50 [5]: 0.54 µM
Compound: C=CCc1c(-c2cccc(NS(=O)(=O)c3cccs3)c2)oc(=O)c2cc(F)ccc12
inhibition [7]: 45.6% | Activity (Rattus norvegicus [8]): Active | inhibition [11]: 30.9% | Activity (Rattus norvegicus [14]): Active | Activity (Rattus norvegicus [16]): Active | Activity [17]: Non-Toxic | Activity [18]: Non-Toxic | Activity [19]: Non-Toxic | Activity (Rattus norvegicus [20]): Active | Activity (Rattus norvegicus [22]): Dose-Dependent Effect | IC50 (RAW264.7): > 100 µM | Activity [27]: Non-Toxic | Activity (Rattus norvegicus [28]): inactive | inhibition [31]: 65.5% | Activity (Rattus norvegicus [2]): Active | Activity [35]: Non-Toxic | inhibition [36]: 40.3%

inhibition [4]: 87.6% | IC50 [5]: 3.91 µM
Compound: C=CCc1c(-c2ccc(NS(=O)(=O)c3ccccc3)cc2)oc(=O)c2ccccc12

inhibition [4]: 79.7% | IC50 [5]: 3.04 µM
Compound: C=CCc1c(-c2cccc(NS(=O)(=O)c3ccc(C)cc3)c2)oc(=O)c2cc(F)ccc12

inhibition [4]: 80% | IC50 [5]: 3.33 µM
Compound: C=CCc1c(-c2cccc(NS(=O)(=O)c3ccc(OC)cc3)c2)oc(=O)c2ccccc12

inhibition [4]: 56%
Compound: C=CCc1c(-c2ccc(NS(C)(=O)=O)cc2)oc(=O)c2ccc(Cl)cc12

inhibition [4]: 81.2% | IC50 [5]: 4.78 µM
Compound: C=CCc1c(-c2cccc(NS(=O)(=O)c3ccccc3)c2)oc(=O)c2ccc(Cl)cc12

inhibition [4]: 75.7% | IC50 [5]: 4.01 µM
Compound: C=CCc1c(-c2cccc(NS(=O)(=O)c3cccs3)c2)oc(=O)c2ccc(Cl)cc12

inhibition [4]: 90.9% | IC50 [5]: 1.94 µM
Compound: C=CCc1c(-c2cccc(NS(C)(=O)=O)c2)oc(=O)c2cc(F)ccc12

inhibition [4]: 63.5%
Compound: C=CCc1c(-c2ccc(NS(=O)(=O)c3ccc(C)cc3)cc2)oc(=O)c2ccccc12

inhibition [4]: 82.9% | IC50 [5]: 1.24 µM
Compound: C=CCc1c(-c2cccc(NS(=O)(=O)c3ccccc3)c2)oc(=O)c2ccccc12

inhibition [4]: 55.8%
Compound: C=CCc1c(-c2cccc(NS(C)(=O)=O)c2)oc(=O)c2ccccc12

inhibition [4]: 62.2%
Compound: C=CCc1c(-c2cccc(NS(C)(=O)=O)c2)oc(=O)c2ccc(Cl)cc12

inhibition [4]: 77.2%
Compound: COc1ccc(C2CNC(=O)C2)cc1OC1CCCC1 (stereo unspecified)
inhibition [37]: 50.3%

inhibition [4]: 94% | IC50 [5]: 2.36 µM
Compound: C=CCc1c(-c2ccc(NS(=O)(=O)c3ccc(C)cc3)cc2)oc(=O)c2cc(F)ccc12
